IC50 data for nine molecules are collected here from US7964352B2, “3′-OH unblocked nucleotides and nucleosides, base modified with labels and photocleavable, terminating groups and methods for their use in DNA sequencing” (priority 2006, dated 2011).

The target of assay [1] is T1, T[…] polymerase (Thermococcus sp., UniProt Q56366, A485L/D141A/E143A).
T1 construct: purchased
In words: Polymerase end-point (PEP) assay, Therminator. The format is biochemical, Thermococcus species 9°N-7. The source says: (§1) Numerous groups have employed qualitative, Sanger-based assays to estimate relative incorporation efficiencies of terminating nucleotide analogs compared to their natural nucleotide counterparts. Although useful, the ability to assay modified nucleotide analogs in the absence of natural nucleotides is not feasible using these assays. These two limitations led to a quantitative, polymerase end-point (PEP) assay, which is utilized in a high-throughput manner for screening numerous modified nucleotides against a number of well-characterized, commercially available polymerases. Identification of lead compounds with a specific DNA polymerase could then be prioritized for further kinetic studies. The PEP assay is designed with the polymerase concentration in excess of the primer/template complex (i.e., this complex is fully bounded with polymerase at the start of the titration), thereby limiting reaction to nucleotide binding and nucleotyl coupling steps. Limiting amounts of the desired nucleotide are then titrated across the appropriate concentration range (generally three orders of magnitude) to observe extension of a dye-labeled primer by gel electrophoresis. The end-point concentration is determined from a semi-log plot where the number of moles of substrate and product are equal, called the IC50 (i.e., incorporation concentration at 50%) value.
(§2) For all polymerases evaluated in this study, 40 nM of oligo-template (5′-TACGGAGCA-[…], interrogation base is underlined and bolded) was annealed to 5 nM BODIPY-FL labeled primer (5′-TTGTAAAACGACGGCCAGT) in 1× ThermoPol buffer (20 mM Tris-HCl, pH 8.8; 10 mM (NH4)2SO4, 10 mM KCl; 2 mM MgSO4; 0.1% Triton X-100, New England BioLabs) at 80° C. for 30 seconds, 57° C. for 30 seconds, and then cooled to 4° C. The primer/template complex is then diluted by one-half (i.e., its final concentration is 2.5 nM in a volume of 10 μL) by the addition of DNA polymerase, nucleotide analog, and ThermoPol buffer. This defines the lower limit of the IC50 value for nucleotide titrations to 1.25 nM (i.e., [primer]=[primer+1]). Polymerase reactions were incubated at their appropriate temperature for 10 minutes, then cooled to 4° C. and quenched with 10 μL of stop solution (98% deionized formamide; 10 mM Na2EDTA, pH 8.0; 25 mg/mL Blue Dextran, MW 2,000,000). Stopped reactions were heated to 90° C. for 30 seconds, and then placed on ice. […] The PEP assays were performed in triplicate for each DNA polymerase/nucleotide analog combination to calculate its IC50 values±one standard deviation.
(§3) The number of activity units for eight commercially available, 3′-exonuclease deficient (3′-exo-) DNA polymerases was first determined by titration with 2′-deoxyadenosine triphosphate (dATP, concentration range from 0.1 nM to 100 nM) with the goal of reaching the PEP IC50 limit of 1.25 nM (data not shown). In general, increasing the number of units reduced the IC50 values for dATP towards this limit, with exception with Taq, THERMINATOR™, and THERMINATOR™ II. For these enzymes, there was an increase in IC50 values for dATP with increasing enzyme concentration, which was not investigated further and presumed to be due to a direct relationship with increasing enzyme concentration and phosphorolysis. For these cases, the number of units used for subsequent PEP assays were those activity units that gave the lowest IC50 values for dATP.
(§4) WW1p129 and ddATP were then titrated using the PEP assay with the eight DNA polymerases (unit activities previously defined) in the concentration range of either 0.1 nM to 100 nM, 1 nM to 1μM, 10 nM to 10μM, or 100 nM to 100 μM (see Table 1). UV-light sensitive compounds were handled at all times in low light conditions to minimize conversion to dATP.

The target in assay [2] is T2, Bst DNA polymerase (Geobacillus stearothermophilus, UniProt P52026).
T2 construct: purchased
T2 sequence (P52026 1-876): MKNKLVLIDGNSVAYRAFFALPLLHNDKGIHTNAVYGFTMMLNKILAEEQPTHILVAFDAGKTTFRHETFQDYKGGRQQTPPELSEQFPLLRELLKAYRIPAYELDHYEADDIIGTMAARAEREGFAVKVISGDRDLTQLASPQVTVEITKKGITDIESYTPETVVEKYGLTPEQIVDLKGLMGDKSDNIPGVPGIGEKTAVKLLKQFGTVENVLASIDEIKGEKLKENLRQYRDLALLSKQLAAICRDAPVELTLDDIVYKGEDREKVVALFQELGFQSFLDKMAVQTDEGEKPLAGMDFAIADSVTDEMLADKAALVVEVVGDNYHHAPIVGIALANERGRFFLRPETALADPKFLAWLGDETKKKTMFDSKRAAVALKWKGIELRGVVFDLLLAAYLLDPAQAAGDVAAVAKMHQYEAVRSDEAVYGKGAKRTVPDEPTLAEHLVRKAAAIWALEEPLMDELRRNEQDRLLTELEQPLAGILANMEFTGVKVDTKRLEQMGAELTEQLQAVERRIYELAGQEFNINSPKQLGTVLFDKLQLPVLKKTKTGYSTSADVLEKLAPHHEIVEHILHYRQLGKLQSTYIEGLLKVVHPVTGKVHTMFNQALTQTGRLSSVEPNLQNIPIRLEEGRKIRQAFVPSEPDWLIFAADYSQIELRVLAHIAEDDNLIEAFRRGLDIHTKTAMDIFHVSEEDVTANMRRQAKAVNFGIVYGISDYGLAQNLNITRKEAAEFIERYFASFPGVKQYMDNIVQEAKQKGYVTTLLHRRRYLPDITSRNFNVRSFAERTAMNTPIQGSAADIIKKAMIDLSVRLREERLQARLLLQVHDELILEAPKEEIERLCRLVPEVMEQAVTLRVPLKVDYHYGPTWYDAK
Put plainly: Polymerase end-point (PEP) assay, Bst. The format is biochemical.
From the text: as §1, §2, §3, §4

Assay [3] deals with T3, Klenow (3′-exo-) DNA polymerase (Escherichia coli, UniProt P00582, D355A/E357A).
T3 construct: Klenow(-exo-) DNA polymerase; purchased
In words: Polymerase end-point (PEP) assay, Klenow (3′-exo-). Type of assay: biochemical. Particulars: Klenow (3′-exo-): 37° C.; incorporation concentration at 50%.
From the text: as §1
(§5) For all polymerases evaluated in this study, 40 nM of oligo-template (5′-TACGGAGCA-[…], interrogation base is underlined and bolded) was annealed to 5 nM BODIPY-FL labeled primer (5′-TTGTAAAACGACGGCCAGT) in 1× ThermoPol buffer (20 mM Tris-HCl, pH 8.8; 10 mM (NH4)2SO4, 10 mM KCl; 2 mM MgSO4; 0.1% Triton X-100, New England BioLabs) at 80° C. for 30 seconds, 57° C. for 30 seconds, and then cooled to 4° C. The primer/template complex is then diluted by one-half (i.e., its final concentration is 2.5 nM in a volume of 10 μL) by the addition of DNA polymerase, nucleotide analog, and ThermoPol buffer. This defines the lower limit of the IC50 value for nucleotide titrations to 1.25 nM (i.e., [primer]=[primer+1]). […]

In assay [4] the target is T4, Taq DNA polymerase (Thermus aquaticus, UniProt P19821).
T4 construct: purchased
In words: Polymerase end-point (PEP) assay, Taq. Type of assay: biochemical. As to conditions: Taq: 68° C.; incorporation concentration at 50%.
From the text: as §1, §5

Assay [5] has as its target T5, AMPLITAQ DNA polymerase, FS (Taq FS) (Thermus aquaticus, UniProt P19821, F667Y/G46D).
T5 construct: purchased
Put plainly: Polymerase end-point (PEP) assay, Taq FS. Type of assay: biochemical. As to conditions: Taq FS: 68° C.; incorporation concentration at 50%.
From the text: as §1, §5

Assay [6] has as its target T6, T[…] DNA polymerase (Thermococcus sp., UniProt Q56366, A485L/D141A/E143A/Y409V).
T6 construct: purchased
Put plainly: Polymerase end-point (PEP) assay, Therminator II. The format is biochemical, Thermococcus species 9°N-7. Particulars: Therminator II: 75° C.; incorporation concentration at 50%.
From the text: as §1, §5

The target of assay [7] is T7, Vent (3′-exo-) DNA polymerase (Thermococcus litoralis, UniProt P30317, D141A/DEL1082-1471/DEL495-1032/E143A).
T7 construct: purchased
Put plainly: Polymerase end-point (PEP) assay, Vent (3′-exo-). Type of assay: biochemical.
From the text: as §1, §5

Assay [8] has as its target T8, DeepVent (3′-exo-) DNA polymerase (Pyrococcus sp., UniProt Q51334, D141A/DEL493-1029/E143A).
T8 construct: purchased
In words: Polymerase end-point (PEP) assay, DeepVent (3′-exo-). Type of assay: biochemical, Pyrococcus species GB-D.
From the text: as §1, §5

Setting [9] is: Table 2, incorporation concentration at 50%, read-out: IC50 values, Therminator.
[10] abbreviates: Table 2, incorporation concentration at 50%, read-out: IC50 values, Bst.
[11] abbreviates: Bst: 65° C., IC50 = incorporation concentration at 50%, Table 1, read-out: IC50 values.
The mark [12] stands for this setting: Therminator: 75° C., incorporation concentration at 50%, Table 1, read-out: IC50 values.
[13] abbreviates: Vent (3′-exo-): 72° C., incorporation concentration at 50%, read-out: IC50 values.
[14] abbreviates: DeepVent (3′-exo-): 72° C., incorporation concentration at 50%, read-out: IC50 values.

Read-outs that look alike come from different tables or passages of the source.

A word on the IC50: it is the concentration that gives 50% inhibition.

T4 sequence (P19821 whole entry): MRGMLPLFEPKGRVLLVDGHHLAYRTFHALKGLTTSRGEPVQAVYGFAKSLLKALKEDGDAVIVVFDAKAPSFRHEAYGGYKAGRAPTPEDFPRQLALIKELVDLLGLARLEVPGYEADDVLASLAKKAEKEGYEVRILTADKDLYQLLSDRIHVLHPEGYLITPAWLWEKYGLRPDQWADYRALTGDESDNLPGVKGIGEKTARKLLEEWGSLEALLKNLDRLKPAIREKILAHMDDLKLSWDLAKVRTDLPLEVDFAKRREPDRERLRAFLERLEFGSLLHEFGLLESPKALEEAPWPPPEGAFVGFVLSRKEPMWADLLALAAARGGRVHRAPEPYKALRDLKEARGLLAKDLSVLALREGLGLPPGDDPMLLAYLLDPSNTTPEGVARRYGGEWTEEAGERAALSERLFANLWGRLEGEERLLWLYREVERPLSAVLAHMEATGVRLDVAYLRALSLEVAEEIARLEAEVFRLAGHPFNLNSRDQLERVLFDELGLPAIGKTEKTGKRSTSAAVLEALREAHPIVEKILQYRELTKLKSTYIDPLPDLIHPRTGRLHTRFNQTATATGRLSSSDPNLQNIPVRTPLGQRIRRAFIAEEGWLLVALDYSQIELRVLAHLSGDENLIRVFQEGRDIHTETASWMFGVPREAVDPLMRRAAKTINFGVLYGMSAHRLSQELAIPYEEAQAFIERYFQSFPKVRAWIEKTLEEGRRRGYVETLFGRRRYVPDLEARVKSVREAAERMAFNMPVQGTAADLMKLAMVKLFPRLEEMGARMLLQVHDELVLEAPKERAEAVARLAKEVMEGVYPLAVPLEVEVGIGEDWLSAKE
T8 sequence (Q51334 other isoform, or with tags, fused parts or gaps D141A/E143A/DEL493-1029): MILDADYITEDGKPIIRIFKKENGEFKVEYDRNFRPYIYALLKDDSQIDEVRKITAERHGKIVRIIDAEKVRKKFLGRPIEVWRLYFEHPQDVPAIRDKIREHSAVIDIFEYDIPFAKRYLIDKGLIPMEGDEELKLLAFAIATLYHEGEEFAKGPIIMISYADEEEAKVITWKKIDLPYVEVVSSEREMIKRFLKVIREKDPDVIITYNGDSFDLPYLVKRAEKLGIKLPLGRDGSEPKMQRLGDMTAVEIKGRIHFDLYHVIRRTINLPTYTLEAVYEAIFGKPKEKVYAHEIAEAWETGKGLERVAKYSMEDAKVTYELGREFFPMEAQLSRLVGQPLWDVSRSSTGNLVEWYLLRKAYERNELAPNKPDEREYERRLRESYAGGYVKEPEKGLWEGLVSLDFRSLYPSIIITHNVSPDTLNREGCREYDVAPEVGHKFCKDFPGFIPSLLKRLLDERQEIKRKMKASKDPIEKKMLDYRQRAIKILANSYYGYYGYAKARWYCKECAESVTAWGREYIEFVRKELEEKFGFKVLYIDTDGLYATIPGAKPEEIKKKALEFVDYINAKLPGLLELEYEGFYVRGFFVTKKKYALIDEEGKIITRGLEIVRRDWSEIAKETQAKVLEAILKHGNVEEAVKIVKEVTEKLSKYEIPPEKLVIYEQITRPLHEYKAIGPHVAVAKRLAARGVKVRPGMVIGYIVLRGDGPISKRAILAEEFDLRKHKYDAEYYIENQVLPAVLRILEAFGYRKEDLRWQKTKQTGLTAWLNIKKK
T1 sequence (Q56366 whole entry D141A/E143A/A485L): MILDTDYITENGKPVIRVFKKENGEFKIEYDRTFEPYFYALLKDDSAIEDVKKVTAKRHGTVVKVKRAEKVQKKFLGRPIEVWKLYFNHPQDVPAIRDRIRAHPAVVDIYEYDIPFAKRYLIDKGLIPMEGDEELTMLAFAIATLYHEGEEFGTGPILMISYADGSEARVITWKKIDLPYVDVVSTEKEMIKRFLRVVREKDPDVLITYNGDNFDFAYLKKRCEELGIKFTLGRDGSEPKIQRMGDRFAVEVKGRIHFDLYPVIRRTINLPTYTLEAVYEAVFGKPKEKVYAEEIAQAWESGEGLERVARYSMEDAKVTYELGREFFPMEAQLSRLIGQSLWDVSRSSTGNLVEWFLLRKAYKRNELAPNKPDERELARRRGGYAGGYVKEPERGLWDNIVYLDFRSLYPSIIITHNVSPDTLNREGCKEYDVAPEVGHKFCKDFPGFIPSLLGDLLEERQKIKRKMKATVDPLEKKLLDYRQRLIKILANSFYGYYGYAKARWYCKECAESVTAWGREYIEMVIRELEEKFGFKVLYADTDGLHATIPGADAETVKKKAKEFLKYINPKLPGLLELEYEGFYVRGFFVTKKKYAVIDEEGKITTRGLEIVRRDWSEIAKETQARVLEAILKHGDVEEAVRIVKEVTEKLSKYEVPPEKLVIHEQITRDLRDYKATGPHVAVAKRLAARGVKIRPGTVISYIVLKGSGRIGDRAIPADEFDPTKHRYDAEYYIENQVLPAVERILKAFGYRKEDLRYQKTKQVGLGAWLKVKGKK
T6 sequence (Q56366 whole entry D141A/E143A/Y409V/A485L): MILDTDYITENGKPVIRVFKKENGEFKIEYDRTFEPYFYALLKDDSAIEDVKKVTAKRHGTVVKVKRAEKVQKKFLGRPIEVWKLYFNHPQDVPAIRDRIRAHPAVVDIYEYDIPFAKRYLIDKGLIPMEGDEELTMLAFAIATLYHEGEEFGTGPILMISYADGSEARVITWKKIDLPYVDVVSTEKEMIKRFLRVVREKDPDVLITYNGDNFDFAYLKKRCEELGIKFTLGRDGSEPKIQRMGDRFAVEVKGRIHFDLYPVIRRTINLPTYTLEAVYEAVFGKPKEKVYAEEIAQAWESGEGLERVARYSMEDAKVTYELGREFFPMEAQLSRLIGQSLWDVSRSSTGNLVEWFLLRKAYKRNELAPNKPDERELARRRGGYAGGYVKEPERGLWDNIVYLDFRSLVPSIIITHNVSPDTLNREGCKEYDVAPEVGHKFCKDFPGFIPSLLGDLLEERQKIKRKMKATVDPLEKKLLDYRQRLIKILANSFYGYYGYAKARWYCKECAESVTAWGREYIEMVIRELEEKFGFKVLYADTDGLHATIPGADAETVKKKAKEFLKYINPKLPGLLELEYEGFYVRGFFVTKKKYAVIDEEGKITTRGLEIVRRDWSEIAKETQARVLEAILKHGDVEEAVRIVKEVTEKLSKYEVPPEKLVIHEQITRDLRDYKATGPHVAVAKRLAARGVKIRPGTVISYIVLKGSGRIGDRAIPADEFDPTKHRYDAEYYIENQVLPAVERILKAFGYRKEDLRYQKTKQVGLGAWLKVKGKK
T5 sequence (P19821 whole entry G46D/F667Y): as the sequence (P19821 whole entry) above, with G46D, F667Y counted along it
T3 sequence (P00582 324-928 D355A/E357A): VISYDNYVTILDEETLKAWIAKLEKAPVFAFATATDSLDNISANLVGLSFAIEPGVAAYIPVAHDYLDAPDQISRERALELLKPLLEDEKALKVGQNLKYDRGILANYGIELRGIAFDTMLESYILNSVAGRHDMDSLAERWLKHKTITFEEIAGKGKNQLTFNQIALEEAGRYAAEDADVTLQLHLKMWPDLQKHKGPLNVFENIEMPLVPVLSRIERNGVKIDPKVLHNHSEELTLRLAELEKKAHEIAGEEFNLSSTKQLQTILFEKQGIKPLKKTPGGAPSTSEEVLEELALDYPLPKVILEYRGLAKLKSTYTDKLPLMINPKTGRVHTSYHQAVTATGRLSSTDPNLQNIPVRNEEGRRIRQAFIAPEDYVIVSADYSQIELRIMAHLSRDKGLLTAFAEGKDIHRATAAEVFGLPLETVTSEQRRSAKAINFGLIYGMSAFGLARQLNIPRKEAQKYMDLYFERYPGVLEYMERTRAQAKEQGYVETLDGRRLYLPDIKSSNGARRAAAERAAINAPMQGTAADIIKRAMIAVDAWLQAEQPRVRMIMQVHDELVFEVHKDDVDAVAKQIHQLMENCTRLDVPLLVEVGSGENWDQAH
T7 sequence (P30317 other isoform, or with tags, fused parts or gaps D141A/E143A/DEL495-1032/DEL1082-1471): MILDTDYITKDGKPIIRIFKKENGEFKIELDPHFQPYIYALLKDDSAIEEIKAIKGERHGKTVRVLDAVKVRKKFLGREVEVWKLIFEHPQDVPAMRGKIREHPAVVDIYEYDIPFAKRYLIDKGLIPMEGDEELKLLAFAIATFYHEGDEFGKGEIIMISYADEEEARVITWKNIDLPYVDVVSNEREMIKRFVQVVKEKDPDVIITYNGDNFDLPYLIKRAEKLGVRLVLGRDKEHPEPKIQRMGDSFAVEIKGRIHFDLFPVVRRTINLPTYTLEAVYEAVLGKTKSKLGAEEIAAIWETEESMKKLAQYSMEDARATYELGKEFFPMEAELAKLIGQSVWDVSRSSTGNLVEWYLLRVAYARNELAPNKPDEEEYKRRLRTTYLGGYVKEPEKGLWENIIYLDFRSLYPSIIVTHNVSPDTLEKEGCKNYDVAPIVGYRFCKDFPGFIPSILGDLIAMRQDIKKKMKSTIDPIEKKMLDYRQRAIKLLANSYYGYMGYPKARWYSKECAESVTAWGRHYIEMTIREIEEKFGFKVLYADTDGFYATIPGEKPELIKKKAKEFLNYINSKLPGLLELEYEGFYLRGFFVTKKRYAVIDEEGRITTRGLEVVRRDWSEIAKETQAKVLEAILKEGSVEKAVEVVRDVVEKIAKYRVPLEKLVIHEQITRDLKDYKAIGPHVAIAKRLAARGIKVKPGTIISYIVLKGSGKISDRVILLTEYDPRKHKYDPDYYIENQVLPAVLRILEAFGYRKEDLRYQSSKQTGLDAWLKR

Take “6-JOE Labeled 5-[4-(3-Amino-1-propynyl)-2-nitrobenzyloxymethyl]-2′-deoxyuridine-5′-triphosphate [WW2p075]”: in assay [1] (setting [9]), the 50% inhibitory concentration (IC50) turned out to be 3.8 ± 1.1 nM.
For `O=c1[nH]c(=O)n([C@H]2C[C@H](O)[C@@H](COP(=O)(O)OP(=O)(O)OP(=O)(O)O)O2)cc1COCc1ccccc1[N+](=O)[O-]` [VL3p03085, 5-(2-Nitrobenzyloxymethyl)-2′-deoxyuridine-5′-triphosphate], the IC50 in assay [2] (setting [10]) turned out to be 138 ± 38 nM; in assay [1] (setting [9]) it was 1.1 ± 0.1 nM.
For the molecule `O=[N+]([O-])c1ccccc1CNc1ncnc2c1ncn2[C@H]1C[C@H](O)[C@@H](COP(=O)(O)OP(=O)(O)OP(=O)(O)O)O1` [WW1p129, N^6-(2-Nitrobenzyl)-2′-deoxyadenosine-5′-triphosphate], the 50% inhibitory concentration (IC50) in assay [2] (setting [11]) worked out at 21 ± 3 nM; in assay [2] (setting [10]), 39 ± 9 nM; in assay [3], 4.3 ± 0.2 nM; in assay [4], 2100 ± 200 nM; in assay [5] it was 890 ± 60 nM; in assay [1] (setting [9]) it was 2.5 ± 0.4 nM. Besides, the half-maximal inhibitory concentration (IC50) in assay [1] (setting [12]) amounted to 3.1 ± 0.4 nM; in assay [6], 7.8 ± 0.7 nM; in assay [7] (setting [13]), 2.1 ± 0.2 nM; in assay [8] (setting [14]) it was 11 ± 0.6 nM.
Take `O=c1nc(NCc2ccccc2[N+](=O)[O-])ccn1[C@H]1C[C@H](O)[C@@H](COP(=O)(O)OP(=O)(O)OP(=O)(O)O)O1` [WW2p044, N^4-(2-Nitrobenzyl)-2′-deoxycytidine-5′-triphosphate]: the IC50 in assay [2] (setting [10]) amounted to 57 ± 11 nM; in assay [1] it was 1.8 ± 0.2 nM.
Regarding `Nc1nc(OCc2ccccc2[N+](=O)[O-])c2ncn([C@H]3C[C@H](O)[C@@H](COP(=O)(O)OP(=O)(O)OP(=O)(O)O)O3)c2n1` [WW2p077, O^6-(2-Nitrobenzyl)-2′-deoxyguanosine-5′-triphosphate], the figures for the IC50 in assay [2] (setting [10]) and in assay [1] (setting [9]) were 3800 ± 200 nM and 6.9 ± 0.5 nM, respectively.
Consider `CN(C)c1ccc2c(-c3cc(C(=O)NCC#Cc4ccc(CNc5ccn([C@H]6C[C@H](O)[C@@H](COP(=O)(O)OP(=O)(O)OP(=O)(O)O)O6)c(=O)n5)c([N+](=O)[O-])c4)ccc3C(=O)[O-])c3ccc(=[N+](C)C)cc-3oc2c1` [WW2p080, 6-TAMRA Labeled N^4-[4-(3-Amino-1-propynyl)-2-nitrobenzyl]-2′-deoxycytidine-5′-triphosphate], for which the IC50 in assay [1] (setting [9]) amounted to 3 ± 0.6 nM.
Consider `Nc1nc(OCc2ccc(C#CCNC(=O)c3ccc(C(=O)[O-])c(C4=c5cc6c7c(c5Oc5c4cc4c8c5CCCN8CCC4)CCC[N+]=7CCC6)c3)cc2[N+](=O)[O-])c2ncn([C@H]3C[C@H](O)[C@@H](COP(=O)(O)OP(=O)(O)OP(=O)(O)O)O3)c2n1` [WW2p121, 6-ROX Labeled O^6-[4-(3-Amino-1-propynyl)-2-nitrobenzyl]-2′-deoxyguanosine-5′-triphosphate], for which the half-inhibitory concentration (IC50) in assay [1] came out at 6.3 ± 0.4 nM.
Turning to `Nc1ncnc2c1ncn2[C@H]1C[C@H](O)[C@@H](COP(=O)(O)OP(=O)(O)OP(=O)(O)O)O1` [dATP, 2′-deoxyadenosine triphosphate], the 50% inhibitory concentration (IC50) in assay [3] is 1.6 ± 0.1 nM; in assay [4], 5.5 ± 0.5 nM; in assay [5], 5.3 ± 0.1 nM; in assay [1] (setting [12]), 2.3 ± 0.3 nM; in assay [6], 4.4 ± 0.6 nM; in assay [7] it was 1.6 ± 0.2 nM. Further, in assay [8], the IC50 turned out to be 2.8 ± 0.2 nM.
As to `Nc1ncnc2c1ncn2[C@H]1CC[C@@H](COP(=O)(O)OP(=O)(O)OP(=O)(O)O)O1` [ddATP], the IC50 in assay [2] (setting [11]) is 370 ± 30 nM; in assay [3], 29 ± 5 nM; in assay [4], 12600 ± 900 nM; in assay [5], 3.3 ± 0.1 nM; in assay [1] (setting [12]), 9.7 ± 1.1 nM; in assay [6], 230 ± 30 nM. For the same molecule, the 50% inhibitory concentration (IC50) in assay [7] (setting [13]) was 550 ± 40 nM; in assay [8] (setting [14]) it was 3400 ± 400 nM.
